Experimental data from patent US8404691B2, “Imidazothiazole derivatives having proline ring structure” (Daiichi Sankyo Company, Limited, priority 2009, dated 2013).

Tests used:
[1] = Metabolic stability test (microsomal metabolism); format: in vitro ADME; conditions: human liver microsomes, 37° C., 30 minutes after addition of NADP+; further: tested at 1.1 µM
Method: 100 μL of 100 mM phosphate buffer solution (pH 7.4) containing 3 μM test compound was added to 100 μL of reaction solution containing 100 mM phosphate buffer solution (pH 7.4), 30 mM glucose 6-phosphate, 10 mM MgCl2.6H2O, 3 units/mL glucose 6-phosphate 1-dehydrogenase, and 0.3 to 1.5 mgP/mL human liver microsomes and the mixture was incubated at 37° C. for 20 minutes. Then, 70 μL of 100 mM phosphate buffer solution (pH 7.4) containing 3 mM NADP+ was added and the mixture was further incubated at 37° C. for 30 minutes to conduct a microsomal metabolism test. The compound was quantified by the internal standard method using a quadrupole mass spectrometer connected to a high performance liquid chromatography apparatus. The metabolic stability (residual percentage of compound: MS %) was determined according to the following formula: MS(human)(%)=(peak area ratio of test compound after addition of NADP+ and incubation for 30 minutes)/(peak area ratio of test compound before addition of NADP+)×100.
(peak area ratio: peak area of test compound divided by that of internal standard substance)

Mdm2/p53 binding = target: T1, Mdm2/p53 binding (Homo sapiens, UniProt Q00987, L33E); experiment: Mdm2/p53 binding assay (HTRF, His-p53 and GST-Mdm2); conditions: His-p53 (aa 1-132) and GST-Mdm2 (aa 25-108, L33E), 6.25 nM each, 25° C. for 1 hour
T1 construct: Mdm2 amino acids at positions 25 to 108
T1 sequence (Q00987 25-108 L33E): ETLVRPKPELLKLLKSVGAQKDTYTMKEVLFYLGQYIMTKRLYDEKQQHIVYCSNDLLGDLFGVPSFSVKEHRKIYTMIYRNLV
Method: Next, a test compound was diluted with DMSO to produce protein buffer solution containing 10% dilution, and this buffer solution was added in an amount of 4 μL/well to the plate.
These dilutions were added in an amount of 8 μL/well (total reaction solution volume: 20 μl/well). Then, the plate was left at 25° C. for 1 hour.
The R value calculated from the well supplemented with His-p53, GST-Mdm2, the test compound, and each antibody was defined as R (sample). The R value calculated from the well supplemented with His-p53, GST-Mdm2, and each antibody but without the test compound was defined as R (control). The R value calculated from the well supplemented with GST-Mdm2, the test compound, and each antibody but without His-p53 was defined as R (background). T/C was calculated from the formula shown below. An IC50 value for Mdm2/p53 binding was calculated by sigmoid fitting. T/C=(R(sample)−R(background))/(R(control)−R(background))

[2] = test system: human lung cancer-derived cell line NCI-H460 having wild-type p53; experiment: Cell growth inhibition assay (MTT); format: cell-based; conditions: 72 h, NCI-H460 cells, culturing 3 days, read-out: anti-cellular effect GI50 (50% growth inhibition concentration)
Method: A cell growth inhibition assay was conducted using human lung cancer-derived cell line NCI-H460 having wild-type p53.
NCI-H460 cells were suspended in a medium (RPMI1640 medium containing 10% fetal bovine serum) and the suspension was inoculated in an amount of 500 cells/150 μL/well to a 96-well multiwell plate. A test compound was dissolved in DMSO and this solution was diluted with medium to prepare a sample solution (DMSO concentration: 1% or lower). On the next day of inoculation, medium nonsupplemented with the test compound or the sample solution was added in an amount of 50 μL/well. The MTT assay was conducted immediately after the medium was added in an amount of 50 μL on the next day of cell inoculation, and after the sample solution or the medium was added to cells followed by culturing at 37° C. for 3 days in a 5% CO2 atmosphere. The MTT assay was conducted as shown below.
A 5 mg/mL MTT (3-(4,5-dimethylthiazol-2-yl)-2,5-diphenyltetrazolium bromide, Sigma-Aldrich Co., M-2128) solution was prepared using a phosphate buffer solution (Dulbecco's Phosphate-buffered Saline). This MTT solution was added in an amount of 20 μL/well. Then, the plate was cultured at 37° C. for 4 hours in a 5% CO2 atmosphere. The plate was centrifuged at 1200 rpm for 5 minutes and then the culture supernatant was removed by aspiration using a dispenser. DMSO was added in an amount of 150 μL/well to dissolve generated formazan. The plate was stirred using a plate mixer for uniform color development from each well. The absorbance of each well was measured under conditions of OD 540 nm and reference 660 nm using a plate reader (SpectraMax PLUS384, Molecular Devices, CA, USA).
The OD value measured on the day of adding the sample solution was defined as S. The OD value measured three days after addition of the sample solution was defined as T. The OD value measured three days after addition of the DMSO dilution was defined as C. T/C (%) was determined at each concentration according to the calculation formula shown below to prepare a dose response curve, from which 50% growth inhibition concentration (GI50 value) was calculated. T/C(%)=(T−S)/(C−S)×100

| SMILES | MS (human) % (metabolic stability, residual percentage of compound) [1] | IC50 (Mdm2/p53 binding) | GI50 [2] |
| --- | --- | --- | --- |
| CC(C)C1=C(C(=O)N2C[C@H](F)C[C@H]2C(=O)N2CC3(CC3)NC[C@H]2CO)SC2=N[C@@](C)(c3ccc(Cl)nc3)[C@@H](c3ccc(Cl)c(F)c3)N21 [Example 12, {(6S)-7-[(4R)-1-{[(5R,6S)-5-(4-chloro-3-fluorophenyl)-6-(6-chloropyridin-3-yl)-3-isopropyl-6-methyl-5,6-dihydroimidazo[2,1-b][1,3]thiazol-2-yl]carbonyl}-4-fluoro-L-prolyl]-4,7-diazaspiro[2.5]oct-6-yl}methanol] | 69% | 5 nM | 400 to 2500 nM |
| CC(C)C1=C(C(=O)N2CC(F)(F)C[C@H]2C(=O)N2CC3(CC3)NC[C@H]2C)SC2=N[C@@](C)(c3ccc(Cl)nc3)[C@@H](c3ccc(Cl)c(F)c3)N21 [Example 10, (6R)-7-(1-{[(5R,6S)-5-(4-chloro-3-fluorophenyl)-6-(6-chloropyridin-3-yl)-3-isopropyl-6-methyl-5,6-dihydroimidazo[2,1-b][1,3]thiazol-2-yl]carbonyl}-4,4-difluoro-L-prolyl)-6-methyl-4,7-diazaspiro[2.5]octane] | 48% | 14 nM | < 400 nM |
| CC(C)C1=C(C(=O)N2C[C@H](F)C[C@H]2C(=O)N2CCNC3(CC3)C2)SC2=N[C@@](C)(c3ccc(Cl)cc3)[C@@H](c3ccc(Cl)cc3)N21 [Example 18] | 6% | 1.6 nM | < 400 nM |

Second part, the compound after the results:

| MS (human) % (metabolic stability, residual percentage of compound) [1] | IC50 (Mdm2/p53 binding) | GI50 [2] | SMILES |
| --- | --- | --- | --- |
| 24% | 1.6 nM | < 400 nM | CC(C)C1=C(C(=O)N2C[C@H](F)C[C@H]2C(=O)N2CCNC3(CC3)C2)SC2=N[C@@](C)(c3ccc(Cl)cc3)[C@@H](c3ccc(Cl)c(F)c3)N21 [Example 23] |
| 51% | 3.1 nM | 400 to 2500 nM | CC(C)C1=C(C(=O)N2C[C@H](F)C[C@H]2C(=O)N2CC3(CC3)NC[C@H]2C)SC2=N[C@@](C)(c3ccc(Cl)nc3)[C@@H](c3ccc(Cl)cc3)N21 [Example 28] |
| 36% | 1.4 nM | < 400 nM | CC(C)C1=C(C(=O)N2C[C@H](F)C[C@H]2C(=O)N2CC3(CC3)NC[C@H]2C)SC2=N[C@@](C)(c3ccc(Cl)cc3)[C@@H](c3ccc(Cl)cc3)N21 [Example 20] |
